Results taken from paper PMC7316994, “In Vitro Pharmacological Profile of a New Small Molecule Bradykinin B2 Receptor Antagonist” (Frontiers in Pharmacology, 2020).
Values joined by “and” are separate entries in the source; they are usually repeats but may differ in a detail not shown here. Equal entries are not always repeated.

What was measured:
[1] = target: T1, kinin B1 receptor (Homo sapiens, UniProt P46663); test: umbilical vein, Sar-[D-Phe^8]des-Arg^9-BK-induced contraction; settings: 1 μM
T1 construct: during the 3-hour incubation period to upregulate the expression of B1; from tissue; host or cells: human umbilical vein rings pre-incubated with interleukin-1β and tumor necrosis factor-α
T1 sequence (P46663 whole entry): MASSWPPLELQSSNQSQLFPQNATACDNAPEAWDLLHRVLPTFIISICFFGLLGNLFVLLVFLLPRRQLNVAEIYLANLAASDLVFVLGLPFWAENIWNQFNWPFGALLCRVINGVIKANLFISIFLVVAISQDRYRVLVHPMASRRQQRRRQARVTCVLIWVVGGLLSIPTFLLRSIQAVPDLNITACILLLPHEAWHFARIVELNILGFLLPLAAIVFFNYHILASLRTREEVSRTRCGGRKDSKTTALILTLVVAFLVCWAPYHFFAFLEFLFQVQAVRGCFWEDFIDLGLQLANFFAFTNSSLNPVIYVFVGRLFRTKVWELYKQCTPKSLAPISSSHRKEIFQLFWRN

[2] = target: T2, mouse B2 receptor (Mus musculus, UniProt P32299); test: Ca^2+ mobilization assay, HEK293T cells; assay type: cell-based; settings: BK at EC80 0.53 nM, n=1
T2 construct: host or cells: HEK293T cells
T2 sequence (P32299 1-392): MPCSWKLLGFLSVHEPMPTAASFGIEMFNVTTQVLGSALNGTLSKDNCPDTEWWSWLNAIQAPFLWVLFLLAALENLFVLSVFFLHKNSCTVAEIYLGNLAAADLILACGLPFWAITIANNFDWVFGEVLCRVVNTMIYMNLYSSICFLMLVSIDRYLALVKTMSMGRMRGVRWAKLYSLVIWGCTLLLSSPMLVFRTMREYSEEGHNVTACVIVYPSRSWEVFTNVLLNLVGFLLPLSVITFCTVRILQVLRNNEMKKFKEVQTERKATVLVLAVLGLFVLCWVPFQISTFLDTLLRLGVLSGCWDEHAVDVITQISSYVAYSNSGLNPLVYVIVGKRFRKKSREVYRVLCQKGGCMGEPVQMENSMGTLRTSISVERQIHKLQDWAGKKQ

[3] = target: T3, Neurokinin NK2 (Homo sapiens, UniProt P21452); design: method as in FDA Pharmacology Review Icatibant; settings: ref FDA Pharmacology Review Icatibant; read-out: IC50, binding to NK2 receptors; cited from earlier work
T3 construct: host or cells: CHO cells
T3 sequence (P21452 1-398): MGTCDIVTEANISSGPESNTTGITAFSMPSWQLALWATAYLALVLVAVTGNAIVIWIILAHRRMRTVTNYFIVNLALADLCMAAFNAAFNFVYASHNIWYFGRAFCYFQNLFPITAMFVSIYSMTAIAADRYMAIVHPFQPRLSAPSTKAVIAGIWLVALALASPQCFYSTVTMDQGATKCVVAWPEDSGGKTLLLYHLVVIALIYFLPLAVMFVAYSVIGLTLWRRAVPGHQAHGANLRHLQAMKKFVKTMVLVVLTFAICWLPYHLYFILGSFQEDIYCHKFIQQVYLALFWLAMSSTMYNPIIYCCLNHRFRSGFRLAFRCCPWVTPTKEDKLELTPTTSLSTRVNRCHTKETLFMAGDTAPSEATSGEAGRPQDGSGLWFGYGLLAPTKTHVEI

[4] = target: T4, endogenous human B2 receptor (Homo sapiens, UniProt P30411); test: human isolated umbilical vein contractility assay, BK-induced contraction; settings: for Maximal BK-induced response in absolute force units ± S.E.M.: vehicle: Icatibant 1.90, Compound 1 […]
T4 construct: BK-induced contraction at endogenous human B2 receptor in the umbilical vein model; from tissue; host or cells: human umbilical vein rings (donor cords after elective caesarean section)
T4 sequence (P30411 1-391): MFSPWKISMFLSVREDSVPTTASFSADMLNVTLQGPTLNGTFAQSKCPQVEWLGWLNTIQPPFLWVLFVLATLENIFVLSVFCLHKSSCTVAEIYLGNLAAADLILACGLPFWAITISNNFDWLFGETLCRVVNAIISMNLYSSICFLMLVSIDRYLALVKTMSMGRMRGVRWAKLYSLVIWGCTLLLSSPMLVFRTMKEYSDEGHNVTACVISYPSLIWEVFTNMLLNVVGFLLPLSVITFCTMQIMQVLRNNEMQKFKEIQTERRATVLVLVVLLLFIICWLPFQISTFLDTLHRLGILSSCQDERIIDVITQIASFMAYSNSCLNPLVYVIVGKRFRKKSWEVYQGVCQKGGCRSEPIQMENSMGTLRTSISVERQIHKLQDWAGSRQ

[5] = target: T5, cynomolgus monkey B2 receptor (Macaca fascicularis, UniProt A0A7N9CWN6); test: cell-based
T5 sequence (A0A7N9CWN6 1-391): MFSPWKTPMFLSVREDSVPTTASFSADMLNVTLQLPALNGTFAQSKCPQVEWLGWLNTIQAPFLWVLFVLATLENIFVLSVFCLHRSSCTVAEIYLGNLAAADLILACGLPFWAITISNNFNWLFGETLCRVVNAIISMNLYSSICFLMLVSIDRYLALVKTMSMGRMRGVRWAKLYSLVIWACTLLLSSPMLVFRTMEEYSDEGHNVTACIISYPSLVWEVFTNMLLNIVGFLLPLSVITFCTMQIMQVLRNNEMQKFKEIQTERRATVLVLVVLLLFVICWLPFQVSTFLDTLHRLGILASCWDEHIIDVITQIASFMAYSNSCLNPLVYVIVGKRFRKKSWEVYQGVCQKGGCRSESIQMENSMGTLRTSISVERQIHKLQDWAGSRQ

[6] = target: T6, dog B2 receptor (Canis lupus familiaris, UniProt Q9BDQ4); test: Ca^2+ mobilization assay, HEK293T cells; assay type: cell-based; settings: Dog; BK at EC80 1.86 nM; n=1; read-out: IC50 (nM) Mean
T6 sequence (Q9BDQ4 1-392): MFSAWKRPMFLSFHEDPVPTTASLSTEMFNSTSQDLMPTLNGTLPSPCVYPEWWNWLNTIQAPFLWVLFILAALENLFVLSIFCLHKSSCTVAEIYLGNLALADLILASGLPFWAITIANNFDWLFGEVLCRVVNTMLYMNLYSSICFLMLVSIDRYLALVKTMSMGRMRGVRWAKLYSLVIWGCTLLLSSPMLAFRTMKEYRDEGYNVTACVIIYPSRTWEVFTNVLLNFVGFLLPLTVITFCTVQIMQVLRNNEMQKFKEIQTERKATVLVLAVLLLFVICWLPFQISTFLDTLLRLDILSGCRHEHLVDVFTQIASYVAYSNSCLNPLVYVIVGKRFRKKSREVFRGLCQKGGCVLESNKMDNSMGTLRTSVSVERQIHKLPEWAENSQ

[7] = target: T7, rat B2 receptor (Rattus norvegicus, UniProt P25023); test: Ca^2+ mobilization assay, HEK293T cells; assay type: cell-based; settings: BK at EC80 4.32 nM
T7 construct: host or cells: HEK293T cells
T7 sequence (P25023 1-396): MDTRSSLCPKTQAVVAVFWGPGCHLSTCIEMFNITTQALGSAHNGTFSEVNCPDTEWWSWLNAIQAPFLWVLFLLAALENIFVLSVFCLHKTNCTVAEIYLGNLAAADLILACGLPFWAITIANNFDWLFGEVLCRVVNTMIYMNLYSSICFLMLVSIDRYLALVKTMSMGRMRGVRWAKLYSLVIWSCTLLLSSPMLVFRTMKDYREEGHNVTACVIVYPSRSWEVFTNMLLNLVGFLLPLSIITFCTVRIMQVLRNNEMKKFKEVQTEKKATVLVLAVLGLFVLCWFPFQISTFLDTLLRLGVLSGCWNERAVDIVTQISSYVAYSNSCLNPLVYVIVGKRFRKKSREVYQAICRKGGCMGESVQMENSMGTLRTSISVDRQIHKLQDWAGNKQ

[8] = target: T4, endogenous human B2 receptor; design: method as in Marceau et al., 1994; settings: umbilical vein; ref Marceau et al., 1994; cited from earlier work

NC(N)=NCCC[C@@H](N)C(=O)N[C@@H](CCCN=C(N)N)C(=O)N1CCC[C@H]1C(=O)N1C[C@H](O)C[C@H]1C(=O)NCC(=O)N[C@@H](Cc1cccs1)C(=O)N[C@@H](CO)C(=O)N1Cc2ccccc2C[C@@H]1C(=O)N1[C@H](C(=O)N[C@@H](CCCN=C(N)N)C(=O)O)C[C@@H]2CCCC[C@@H]21 [icatibant, reference compound]
effect on contraction by B1 receptor agonist Sar-[D-Phe^8]des-Arg^9-BK [1]: failed to antagonize | IC50 [2]: 15.5 nM | IC50 [3]: 420 nM | type of antagonism of BK ([4]; BK concentration-effect curves, Emax): competitive (surmountable) antagonist | Schild plot slope ([4]; Schild regression, Pharm/PCS, ± S.E.M. where given): -0.85 ± 0.16 and −0.85 | Maximal BK-induced response in absolute force units ± S.E.M. ([4]; antagonist 10 nM, Compound 2 2.25, Compound 3 1.52): 1.47 ± 0.19 grams-weight | Maximal BK-induced response in absolute force units ± S.E.M. ([4]; antagonist 100 nM, Compound 2 2.25, Compound 3 1.52): 1.50 ± 0.27 grams-weight | Maximal BK-induced response in absolute force units ± S.E.M. ([4]; antagonist 1 μM, Compound 2 2.25, Compound 3 1.52): 1.40 ± 0.22 grams-weight | Maximal BK-induced response in absolute force units ± S.E.M. ([4]; antagonist 10 μM, Compound 2 2.25): 1.27 ± 0.17 grams-weight | pA2 value converted into nM ([4]; potency from pA2): 8.71 nM and 8.7 nM | IC50 [5]: 17.1 nM | Kb [5]: 4.06 nM | IC50 [6]: 87.1 nM | IC50 [7]: 37.4 nM | pA2, previously reported value [8]: 8.2
